Assay results taken from patent publication US6177253A, “Screening methods for the identification of anti-HIV compounds employing a cyclosporine-specific monoclonal antibody that cross-reacts with HIV-1 p24” (priority 1998, dated 2001).
pIC50: −log10 of the molar value. Entries after “also recorded” stand apart in the source; their conditions may differ.

Key:
R575 = assay: Inhibition RIA of [3H]CsA binding to rabbit anti-cyclosporine antibodies R575; conditions: for affinity group for the rabbit antibodies: inhibition RIA, in words; for pIC50: read-out: IC50 = Concentration for 50% inhibition, inhibition of [3H] dihydro CsA binding to rabbit antibody R575
Procedure: Serum antibodies were detected by a modification of the published radioimmunoassay (5, 12). […] Binding by diluted preimmune serum was used as a control. Free and bound ligand were separated with charcoal supplied by Sandoz according to their procedure. […] The cyclosporin derivatives were dissolved in 100% ethanol at a concentration of 5.0 mg/ml, stored at -20° C., and diluted to final concentrations of 0.27 nM to 2.7 μM in Sandoz buffer B for the inhibition experiments.

[1] = single break in a peptide bond by N O shift; cited from earlier work
G7 1.1 = assay: ELISA inhibition by singly modified Cs-derivatives, McAb G7 1.1; type: binding, BALB/c mice; conditions: group I; McAb binds selectively to Thr^2 -Cs-BSA coating
Procedure: (§1) A second ELISA Procedure used conjugates of D-Lys^8 -Cs-BSA and Thr^2 -Cs-BSA for coating (Queeniaux et al., 1987b). An indirect detection system consisting of rabbit anti-mouse Ig followed by alkaline phosphates-conjugated goat anti-rabbit IgG was performed as previously described (Queenlaux et al., 1987b).
(§2) The binding of the 22 McAbs to these two Cs-BSA conjugates was also found to correlate well with their fine specificity patterns, as characterized with a set of 28-36 Cs derivatives. Typical ELISA curves showing McAb binding either to D-Lys^8 -Cs-BSA (panel A) or to Thr^2 -Ca-BSA (panel B) and inhibited by Cs or Cs derivatives are shown in FIGS. 8A-8B, D-Lys^8 -Cs-BSA was subsequently used for coating in the inhibition experiments, except for those McAbs binding selectively to Thr^2 -Cs-BSA (see Table 4 and FIGS. 7A-7C). An example of the binding of 26 Cs derivatives by McAbs belonging to each of the five specificity groups mentioned above is reported in Table 5. The results are expressed as the difference of IC50 (in log10) between the Cs derivatives and Cs. All Cs-derivatives used in this study were selected for having a conserved peptide ring conformation compared with CsA (as determined in NMR or X-ray diffraction).

H4 1.3 = assay: ELISA inhibition by singly modified Cs-derivatives, McAb H4 1.3; type: binding, BALB/c mice; conditions: group II; D-Lys^8 -Cs-BSA coating
Procedure: as §1, §2

H6 1.5 = assay: ELISA inhibition by singly modified Cs-derivatives, McAb H6 1.5; type: binding, BALB/c mice; conditions: group III; D-Lys^8 -Cs-BSA coating
Procedure: as §1, §2

B11 1.4 = assay: ELISA inhibition by singly modified Cs-derivatives, McAb B11 1.4; type: binding, BALB/c mice; conditions: group IV; D-Lys^8 -Cs-BSA coating
Procedure: as §1, §2

C4 2.2 = assay: ELISA inhibition by singly modified Cs-derivatives, McAb C4 2.2; type: binding, BALB/c mice; conditions: group V; McAb binds selectively to Thr^2 -Cs-BSA coating
Procedure: as §1, §2

affinity group for the rabbit antibodies (R575) | pIC50 (R575) | Structure (SMILES) | log10 difference in the concentrations of Cs-derivatives and unmodified Cs required to achieve 50% inhibition in ELISA, McAb G7 1.1 (G7 1.1) [log10] | log10 difference in the concentrations of Cs-derivatives and unmodified Cs required to achieve 50% inhibition in ELISA, McAb H4 1.3 (H4 1.3) [log10] | log10 difference in the concentrations of Cs-derivatives and unmodified Cs required to achieve 50% inhibition in ELISA, McAb H6 1.5 (H6 1.5) [log10] | log10 difference in the concentrations of Cs-derivatives and unmodified Cs required to achieve 50% inhibition in ELISA, McAb B11 1.4 (B11 1.4) [log10] | log10 difference in the concentrations of Cs-derivatives and unmodified Cs required to achieve 50% inhibition in ELISA, McAb C4 2.2 (C4 2.2) [log10] | other results
high affinity; also recorded: bind best | 8.37 | C/C=C/C[C@@H](C)[C@@H](O)[C@H]1C(=O)N[C@@H](C(C)C)C(=O)N(C)CC(=O)N(C)[C@@H](CC(C)C)C(=O)N[C@@H](C(C)C)C(=O)N(C)[C@@H](CC(C)C)C(=O)N[C@@H](C)C(=O)N[C@H](C)C(=O)N(C)[C@@H](CC(C)C)C(=O)N(C)[C@@H](CC(C)C)C(=O)N(C)[C@@H](C(C)C)C(=O)N1C [CsD] | – | – | – | – | – | –
Moderate affinities | 7.94 | C/C=C/C[C@@H](C)[C@@H](O)[C@H]1C(=O)N[C@@H]([C@@H](C)O)C(=O)N(C)CC(=O)N(C)[C@@H](CC(C)C)C(=O)N[C@@H](C(C)C)C(=O)N(C)[C@@H](CC(C)C)C(=O)N[C@@H](C)C(=O)N[C@H](C)C(=O)N(C)[C@@H](CC(C)C)C(=O)N(C)[C@@H](CC(C)C)C(=O)N(C)[C@@H](C(C)C)C(=O)N1C [CsC] | – | – | – | – | – | affinity group for the rabbit antibodies (R575; listed as CSC): moderate affinities
Moderate affinities | 7.92 | C/C=C/C[C@@H](C)[C@@H](O)[C@H]1C(=O)N[C@@H](CC)C(=O)N2CCC[C@H]2C(=O)N(C)[C@@H](CC(C)C)C(=O)N[C@@H](C(C)C)C(=O)N(C)[C@@H](CC(C)C)C(=O)N[C@@H](C)C(=O)N[C@H](C)C(=O)N(C)[C@@H](CC(C)C)C(=O)N(C)[C@@H](CC(C)C)C(=O)N(C)[C@@H](C(C)C)C(=O)N1C [compound 582] | – | – | – | – | – | –
Moderate affinities | 7.74 | C/C=C/C[C@@H](C)[C@@H](O)[C@H]1C(=O)N[C@@H](CC)C(=O)N(C)CC(=O)N(C)[C@@H](CC(C)C)C(=O)N[C@@H](C(C)C)C(=O)N(C)[C@H](C)C(=O)N[C@@H](C)C(=O)N[C@H](C)C(=O)N(C)[C@@H](CC(C)C)C(=O)N(C)[C@@H](CC(C)C)C(=O)N(C)[C@@H](C(C)C)C(=O)N1C [compound 039] | – | – | – | – | – | –
high affinity; also recorded: bind best | 8.15 | C/C=C/C[C@@H](C)[C@@H](O)[C@H]1C(=O)N[C@@H](CC)C(=O)N(C)CC(=O)N(C)[C@@H](CC(C)C)C(=O)N[C@@H](C(C)C)C(=O)N(C)[C@@H](CC(C)C)C(=O)N[C@@H](C)C(=O)N[C@H](C)C(=O)N(C)[C@@H](CC(C)C)C(=O)N(C)[C@@H](CC(C)C)C(=O)N(C)[C@@H]([C@@H](C)CC)C(=O)N1C [compound 032] | – | – | – | – | – | –
high affinity; also recorded: bind best | 8.22 | C/C=C/C[C@@H](C)[C@@H](OC(C)=O)[C@H]1C(=O)N[C@@H](CC)C(=O)N(C)CC(=O)N(C)[C@@H](CC(C)C)C(=O)N[C@@H](C(C)C)C(=O)N(C)[C@@H](CC(C)C)C(=O)N[C@@H](C)C(=O)N[C@H](C)C(=O)N(C)[C@@H](CC(C)C)C(=O)N(C)[C@@H](CC(C)C)C(=O)N(C)[C@@H](C(C)C)C(=O)N1C [compound 243] | – | – | – | – | – | –

Further lines, the molecule ahead of its results:

Structure (SMILES) | affinity group for the rabbit antibodies (R575) | pIC50 (R575) | log10 difference in the concentrations of Cs-derivatives and unmodified Cs required to achieve 50% inhibition in ELISA, McAb G7 1.1 (G7 1.1) [log10] | log10 difference in the concentrations of Cs-derivatives and unmodified Cs required to achieve 50% inhibition in ELISA, McAb H4 1.3 (H4 1.3) [log10] | log10 difference in the concentrations of Cs-derivatives and unmodified Cs required to achieve 50% inhibition in ELISA, McAb H6 1.5 (H6 1.5) [log10] | log10 difference in the concentrations of Cs-derivatives and unmodified Cs required to achieve 50% inhibition in ELISA, McAb B11 1.4 (B11 1.4) [log10] | log10 difference in the concentrations of Cs-derivatives and unmodified Cs required to achieve 50% inhibition in ELISA, McAb C4 2.2 (C4 2.2) [log10] | other results
C/C=C/C[C@@H](C)[C@@H](O)[C@H]1C(=O)N[C@@H](CC)C(=O)N(C)CC(=O)N(C)[C@@H](CC(C)C)C(=O)N[C@@H](C(C)C)C(=O)N(C)[C@@H](CC(C)C)C(=O)N[C@@H](C)C(=O)N[C@H](COC(C)(C)C)C(=O)N(C)[C@@H](CC(C)C)C(=O)N(C)[C@@H](CC(C)C)C(=O)N(C)[C@@H](C(C)C)C(=O)N1C [compound 717] | inhibits very poorly; also recorded: low affinity | 5.57 | – | – | – | – | – | inhibition of [^3 H] CsA binding obtainable (R575; maximal inhibition): more than 50%
C/C=C/C[C@@H](C)[C@H]1OC(=O)[C@H](C(C)C)N(C)C(=O)[C@H](CC(C)C)N(C)C(=O)[C@H](CC(C)C)N(C)C(=O)[C@@H](C)NC(=O)[C@H](C)NC(=O)[C@H](CC(C)C)N(C)C(=O)[C@H](C(C)C)NC(=O)[C@H](CC(C)C)N(C)C(=O)CN(C)C(=O)[C@H](CC)NC(=O)[C@H]1NC [iso-CsA] | – | – | – | – | – | – | – | biological activity [1]: loss of activity
C/C=C/C[C@@H](C)[C@@H](O)[C@H]1C(=O)N[C@@H](CC)C(=O)N(C)CC(=O)N(C)[C@@H](CC(C)C)C(=O)N[C@@H](C(C)C)C(=O)N(C)[C@@H](C)C(=O)N[C@@H](C)C(=O)N[C@H](C)C(=O)N(C)[C@@H](CC(C)C)C(=O)N(C)[C@@H](CC(C)C)C(=O)N(C)[C@@H](C(C)C)C(=O)N1C [MeLeu^6 McAla] | – | – | 0.7 | 0.9 | 2.7 | 0.0 | 1.2 | –
C/C=C/C[C@@H](C)[C@@H](O)[C@H]1C(=O)N[C@@H](CC)C(=O)N(C)CC(=O)N(C)[C@@H](CC(C)C)C(=O)N[C@@H](C(C)C)C(=O)N(C)[C@@H](CC(C)C)C(=O)N[C@@H](C)C(=O)N[C@H](CO)C(=O)N(C)[C@@H](CC(C)C)C(=O)N(C)[C@@H](CC(C)C)C(=O)N(C)[C@@H](C(C)C)C(=O)N1C [D-Ala^8 D-Ser] | – | – | 1.3 | 0.0 | < 0.0 | 0.1 | 0.3 | –
C/C=C/C[C@@H](C)[C@@H](O)[C@H]1C(=O)N[C@@H]([C@@H](C)OC(C)=O)C(=O)N(C)CC(=O)N(C)[C@@H](CC(C)C)C(=O)N[C@@H](C(C)C)C(=O)N(C)[C@@H](CC(C)C)C(=O)N[C@@H](C)C(=O)N[C@H](C)C(=O)N(C)[C@@H](CC(C)C)C(=O)N(C)[C@@H](CC(C)C)C(=O)N(C)[C@@H](C(C)C)C(=O)N1C [compound 665] | high affinity; also recorded: bind best | 8.32 | – | – | – | – | – | –
C/C=C/C[C@@H](C)[C@@H](O)[C@H]1C(=O)N[C@@H](CC)C(=O)N(C)CC(=O)N(C)[C@@H](CC(C)C)C(=O)N[C@@H](C(C)C)C(=O)N(C)[C@@H](CC(C)C)C(=O)N[C@@H](CC)C(=O)N[C@H](C)C(=O)N(C)[C@@H](CC(C)C)C(=O)N(C)[C@@H](CC(C)C)C(=O)N(C)[C@@H](C(C)C)C(=O)N1C [Ala^7 Abu] | – | – | < 0.0 | 0.0 | 0.0 | 0.0 | < 0.0 | –
C/C=C/C[C@@H](C)[C@@H](O)[C@H]1C(=O)N[C@@H](CC)C(=O)N(C)CC(=O)N(C)[C@@H](CC(C)C)C(=O)N[C@@H](C(C)C)C(=O)N(C)[C@@H](CC(C)C)C(=O)N[C@@H](C)C(=O)N[C@H](C)C(=O)N(C)[C@@H](CC(C)C)C(=O)N(C)[C@@H](C)C(=O)N(C)[C@@H](C(C)C)C(=O)N1C [MeAla^10 MeAla] | – | – | < 0.0 | 0.4 | 0.0 | 0.1 | 0.8 | –
C/C=C/C[C@@H](C)[C@@H](O)[C@H]1C(=O)N[C@@H](CC)C(=O)N(C)CC(=O)N(C)[C@@H](CC(C)C)C(=O)N[C@@H](C(C)C)C(=O)N(C)[C@@H](CC(C)C)C(=O)N[C@@H](C)C(=O)N[C@H](C)C(=O)N(C)[C@@H](Cc2ccccc2)C(=O)N(C)[C@@H](CC(C)C)C(=O)N(C)[C@@H](C(C)C)C(=O)N1C [MeLeu^9 MePhe] | – | – | 0.3 | 0.0 | 0.1 | 1.2 | 1.8 | –
